According to patent US11464767B2, “Prodrugs of phenolic TRPV1 agonists in combination with local anesthetics and vasoconstrictors for improved local anesthesia” (Concentric Analgesics, Inc., priority 2016, dated 2022):
Each block holds one compound with its values, some of them ahead of it.

How the values were obtained:
in vivo = assay: in vivo; set-up: species or system male Sprague-Dawley rats; conditions: rat, sc; for Tmax: Tmax of capsaicin
From the text: This Example compares the pharmacokinetics of capsaicin from either capsaicin or from Compound 1 (with or without co-administered bupivacaine or bupivacaine with epinephrine) administered subcutaneously (SC) to rats. Additionally, this example compares the pharmacokinetics of cyclic urea metabolite (Compound 2) from Compound 1 (with or without co-administered bupivacaine or bupivacaine with epinephrine).
SC dosing: Four groups of six male Sprague-Dawley rats (vendor was Charles River Laboratories) each were to receive a single subcutaneous dose (4 mL/kg) of one of the following test articles:
Group 1) 1.00 mg/kg capsaicin in 25% PEG300/sterile water for injection (♦);
Group 2) 1.62 mg/kg Compound 1.HCl in sterile water for injection (□);
Group 3) 1.62 mg/kg Compound 1.HCl in 0.25% bupivacaine hydrochloride for injection (Δ);
Group 4) 1.62 mg/kg Compound 1.HCl in 0.25% bupivacaine hydrochloride plus epinephrine, (1:200,000 for injection) (*).
The dose of capsaicin and Compound 1 were selected to provide approximately equimolar amounts.
The injection volume was 4 mL/kg. (Note: The actual dose of capsaicin for Group 1 was 0.74 mg/kg, or 74% of the intended dose of 1 mg/kg. Dose data represents dose correction of Group 1 to equimolar dosages with Compound 1 from groups 2, 3, 4). The actual doses of Compound 1 HCl and bupivacaine for Groups 2, 3, and 4 were within 10% of the intended doses.
Blood samples (0.3 mL) were collected from the jugular vein into tubes containing K2EDTA as anticoagulant and 0.3 ml of 2% formic acid (resulting in a final concentration of 1% formic acid) as a quenching agent to stop the cyclization of Compound 1, which releases capsaicin and cyclic urea Compound 2. The samples were collected from each rat at 2, 10, and 30 minutes, and 1, 2, 4, 8, and 24 hours post-dose.
Each blood sample was mixed by inversion and placed on dry ice. They were not processed for plasma. The blood samples were kept frozen at −70° C. until further processing and analysis was performed. All blood samples were collected as scheduled.
The concentrations of the two main analytes in rat blood mixed 1:1 (v/v) with 2% formic acid were determined simultaneously using a qualified LC-MS/MS assay. The results for both analytes were reported in ng/mL. The calibration range was 1 to 1,000 ng/mL for Compound 1 and capsaicin in the mixed matrix. The calibration range was 5 to 1,000 ng/mL for Compound 2.
Table 1, FIG. 1, and FIG. 2 provide dose-corrected capsaicin exposure results for rats administered as described above.
Table 2, FIG. 3, and FIG. 4 provide Compound 2 exposure results for rats administered as described above.

[1] = Hydrophilicity/water solubility compared with capsaicin; type: physicochemical; conditions: than capsaicin
[2] = test system: Brennan Model of Post-Incisional Pain in rat; assay: Brennan Model of Post-Incisional Pain in rat, guarding scores (Example 4); type: in vivo, male Sprague Dawley rats
Procedure: This Example compares the pharmacodynamics of capsaicin from either capsaicin or from Compound 1 (with or without co-administered bupivacaine or ropivacaine) administered via intraplantar infiltration to rats.
Intraplantar infiltration dosing: Five groups of eight male Sprague Dawley rats (vendor was Charles River Laboratories) each were to receive a single subcutaneous dose of one of the following test articles: • Group 1. Compound 1, 162 μg in 0.25% bupivacaine solution (175 μL) • Group 2. Compound 1, 162 μg in 0.25% ropivacaine solution (175 μL) • Group 3. Compound 1, 162 μg in 0.125% ropivacaine solution (175 μL) • Group 4. 0.25% Ropivacaine solution (175 μL) • Group 5. Vehicle control (0.9% Saline; 175 μL)
The injection volume was 175 μL per rat. Vehicle and test articles will be administered by wound intraplantar infiltration (150 μL) immediately prior to incision, and injection into flexor muscle prior to closure (25 μL).
Surgery: Animals were anesthetized with 1.8 to 4% isofluorane (delivered via a nose cone). Study drug ([…]) was infiltrated (by intraplantar injection) immediately prior to incision. A 1 cm long incision of skin, fascia and muscle will be made in the plantar aspect (heel, midfoot or distal pad area) of the right hind paw starting 0.5 cm from the proximal edge of the heel and extending towards the toes. The flexor muscle was elevated and incised longitudinally via blunt dissection with the muscle origin and insertion remaining intact. After hemostasis with gentle pressure, study drug (25 μL) was injected into the flexor muscle prior to closure, and the incision was closed with one or two sutures (5-0 silk/nylon ophthalmic suture on a taper TF needle or equivalent). […]
Guarding Behaviors: The rats were placed in Plexiglas® squares on a stainless steel wire mesh floor thirty minutes before guarding scores are to be measured for acclimation. Guarding scores were measured over 1 hour time periods for the incised paw. The animals were observed closely during a 60 second period every 5 minutes for 1 hour and scored as follows. […]

[3] = male, Sprague-Dawley, 1.62 mg/kg

AUC0-24 of Compound 2, Mean ± SD (in vivo; [3]): 24,180 ± 7,095 ng · min/mL | AUC0-24 of Compound 2, Median (in vivo; [3]): 25,930 ng · min/mL | Cmax of Compound 2, Mean ± SD (in vivo; [3]): 175 ± 48 ng/mL | Cmax of Compound 2, Median (in vivo; [3]): 196 ng/mL | Tmax of Compound 2, Mean ± SD (in vivo; [3]): 36.7 ± 19.7 min | AUC(0-t) (in vivo; male, Sprague-Dawley, 1.62 mg/kg, AUC0-24 of Compound 2, Mean ± SD): 445 ng·h/mL | AUC(0-t) (in vivo; male, Sprague-Dawley, 1.62 mg/kg, AUC0-24 of Compound 2, Median): 450 ng·h/mL | Cmax (in vivo; male, Sprague-Dawley, 1.62 mg/kg, Cmax of Compound 2, Mean ± SD): 226 ± 37 ng/mL | Cmax (in vivo; male, Sprague-Dawley, 1.62 mg/kg, Cmax of Compound 2, Median): 226 ng/mL
Structure (SMILES): CN1CC2CCCCN2C1=O (centres unmarked) [Compound 2, 2-methylhexahydroimidazo[1,5-a]pyridin-3(2H)-one]

Structure (SMILES): CNCC1CCCCN1C(=O)Oc1ccc(CNC(=O)CCCC/C=C/C(C)C)cc1OC.Cl (centres unmarked) [Compound 1, (E)-2-methoxy-4-((8-methylnon-6-enamido)methyl)phenyl 2-((methylamino)methyl)piperidine-1-carboxylate hydrochloride]
hydrophilicity/water solubility [1]: significantly higher

Structure (SMILES): CCCN1CCCC[C@H]1C(=O)Nc1c(C)cccc1C [0.25% Ropivacaine, Ropivacaine]
Guarding Score (Mean ± SEM) Day 1 ([2]; Day 1, beginning four hours post surgery, 175 μL intraplantar infiltration, Compound 1 dose 162 μg where present, incised paw, total scores 0-24): 13.5 ± 1.17 | mean guarding scores on Day 1 compared to the 0.9% saline group ([2]; Day 1, 175 μL intraplantar infiltration, Compound 1 dose 162 μg where present, p<0.05): no significant changes | Guarding Score (Mean ± SEM) Predose ([2]; Predose baseline, day prior to surgery and dosing, incised paw, total scores 0-24): 1.1 ± 0.30

Tmax (in vivo; male, Sprague-Dawley, 1 mg/kg, Mean ± SD): 30 min | Tmax (in vivo; male, Sprague-Dawley, 1 mg/kg, Median): 30 min | Tmax of capsaicin, Mean ± SD (in vivo; [3]): 50.0 ± 15.5 min | Tmax of capsaicin, Median (in vivo; [3]): 60 min | Tmax (in vivo; male, Sprague-Dawley, 1.62 mg/kg, Mean ± SD): 26.7 min | Tmax (in vivo; male, Sprague-Dawley, 1.62 mg/kg, Median): 30 min | AUC0-24 of capsaicin, Mean ± SD (in vivo; 1 mg/kg): 5,799 ± 1,759 (ng · min/mL)/(mg/kg) | AUC0-24 of capsaicin, Median (in vivo; 1 mg/kg): 5,193 (ng · min/mL)/(mg/kg) | Cmax of capsaicin, Mean ± SD (in vivo; 1 mg/kg): 110 ± 41 (ng/mL)/(mg/kg) | Cmax of capsaicin, Median (in vivo; 1 mg/kg): 105 (ng/mL)/(mg/kg)
Structure (SMILES): COc1cc(CNC(=O)CCCCC=CC(C)C)ccc1O [Capsaicin, 8-methyl-N-vanillyl-6-nonenamide]
